Legend:
[1] = depending on binding peptide; cited from earlier work
[2] = Absorbance, emission and photophysical properties of free and tag-bound probe; assay type: physicochemical
Description: In addition to NMR, the synthesized probe of formula (I) was characterized by determining the absorbance and emission spectra, as presented in FIG. 1. The free probe has an absorbance maximum at 560 nm and an emission maximum at 568 nm.
The spectra of FIG. 1 are normalized to the probe/tagged MLCK peptide pair.
The tag bound probe has a quantum yield of 0.28.

[3] = test system: tagged MLCK peptide (calmodulin binding peptide of myosin light chain kinase with SEQ ID NO. 2 tag on the C-terminus); assay: Fluorescence titration of the formula (I) probe with tagged MLCK peptide; conditions: titration of tagged MLCK peptide into probe solution, FIG. 2
Description: For the present study, a tagged peptide was created utilizing the calmodulin binding peptide of the myosin light chain kinase (MLCK) having SEQ ID NO. 2 engineered onto the C-terminus (henceforth tagged MLCK peptide). To determine the binding affinity of the probe to the tag, the tagged MLCK peptide was titrated into a solution containing a probe having formula (I). […] This corresponds to peak molar binding in the absence of ethanedithiol.

[4] = test system: peptide-tag (SEQ ID NO. 2) versus FlAsH tag (SEQ ID NO. 3); assay: Single-pot selective labeling / FRET study, tagged MLCK peptide and FlAsH-tag calmodulin; assay type: binding
Procedure: Fluorescent resonance energy transfer (FRET) studies were also performed. Calmodulin which is known to bind MLCK in a 1:1 ratio in the presence of calcium was covalently linked to a FlAsH-tag having sequence CysCysProGlyCysCys (SEQ ID NO. 3). SEQ ID NO. 2 was utilized to label the MLCK peptide as described above.

Non-tagged MLCK peptide = assay: Control titration of the probe with non-tagged MLCK peptide; assay type: binding; conditions: FIG. 2 circles

SMILES	brightness (reported) [1]	extinction coefficient [2]	absorbance maximum ([2]; free probe) [nm]	emission maximum ([2]; free probe) [nm]	lifetime under photo bleaching conditions ([2]; peptide bound probe, relative to FlAsH)	fluorescence emission maximum ([2]; probe bound to peptide tag (red-shift)) [nm]	brightness relative to FlAsH and ReAsH ([2]; tag bound probe)	quantum yield ([2]; tag bound probe)	increase of probe fluorescence upon addition of tagged peptide [3] [fold]	preference for binding of the peptide-tag over FlAsH tag ([4]; single pot labeling with FlAsH and formula (I), FRET results)	FRET between FlAsH labeled calmodulin and formula (I) labeled tagged MLCK peptide ([4]; titration with 0.1-1 μM labeled peptide, FIG. 3)	fluorescence change on titration with non-tagged MLCK peptide (Non-tagged MLCK peptide)
O=C(O)c1ccccc1-c1c2ccc(=O)c([As]3SCCS3)c-2oc2c([As]3SCCS3)c(O)ccc12 [FlAsH]	41-60											
CC1(C)C(/C=C/C=C2/N(CCCCS(=O)(=O)O)c3ccc([As]4SCCS4)cc3C2(C)C)=[N+](CCCCS(=O)(=O)[O-])c2ccc([As]3SCCS3)cc21 [formula (I)]		180,000	560	568	three times longer than that of FlAsH	576	considerably higher than ReAsH	0.28	5.8	85/15	FRET was observed in proportion to labeling	no increase in fluorescence
